Measured values published in patent publication US11351218B2, “Composition for preventing or treating glioblastoma comprising Platycodon grandiflorum A. De Candolle, Scutellaria baicalensis, Phellodendron amurense Ruprecht or Rubus coreanus” (University-Industry Cooperation Group of Kyung Hee …, priority 2019, dated 2022).

What was measured:
Type in all cases: cell-based, human
[1] = system: U87MG and U373MG cells; experiment: BODIPY FL LDL uptake assay, GBM cells; conditions: PD 10 μM 24 hours, BODIPY FL LDL 1 hour
Procedure: Cells were treated with DMSO, PD (10 μM), or U18 (1 μM) for 24 hours and subsequently loaded with BODIPY™ FL LDL. BODIPY-LDL uptake was visualized by confocal microscopy. Nuclei were stained with DAPI (blue). Quantification shown on the right graph represents a relative fold change from three independent experiments±SD.
Cells seeded on coverslips were treated with the materials and then the culture medium was replaced with BODIPY™ FL LDL (Thermo Fisher Scientific) at a working concentration of 5 μg/mL in a medium. The cells were additionally incubated at 37° C. for 1 hour. The degree of LDL uptake was measured using a Zeiss laser confocal microscope.
Based on the previous study results of the present inventors that PD increases cell surface LDLR expression and accumulate cholesterol within lysosomes, whether PD can increase the uptake of exogenous LDL was examined Cells pretreated with PD or U18666A were incubated with BODIPY FL-labeled LDL particles for 1 hour and the LDL uptake was observed by a confocal microscope. Upon analysis of these cells, it was observed that PD caused about a 6-fold increase in LDL uptake and it was a level similar to that detected in the U18666A-treated cells.

[2] = system: U87MG and U373MG cells; experiment: LysoTracker assay with GFP-LC3B (autophagosome-lysosome fusion) in GBM cells; conditions: PD 10 μM, 24 hours
Source text: […] Then, cells were stained with LysoTracker (red) and DAPI (blue). The merged images show an overlap between GFP-LC3 and LysoTracker (yellow). The panels on the right are higher-magnification images of the boxed regions.
(§1) Cultured cells seeded in plates with microscope coverslips were transfected with a pGFP-LC3B plasmid using Lipofectamine 3000 (Thermo Fisher Scientific) according to the manufacturer's instructions. After the transfection, the cells were fixed with 4% paraformaldehyde (PFA) in phosphate-buffered saline (PBS) at room temperature for 10 minutes. The images were examined under a laser confocal microscope (Zeiss, Oberkochen, Baden-Wurttemberg, Germany).
To stain acidic compartments, 50 nM LysoTrackerRedDND-99 (Thermo Fisher Scientific) was added to a medium at 37° C. with 5% CO2 for 30 minutes prior to fixation. The nuclei were labeled with 4,6-diamidino-2-phenylindole (DAPI, Sigma). The slides were finally mounted using a Faramount mounting medium (Dako, Glostrup, Denmark). The images were examined under a Zeiss laser confocal microscope.
Experimental Result 11. PD Blocks Fusion of Autophagosomes with Lysosomes. Since p62 was accumulated in autophagosomes by PD treatment, it was speculated that PD may cause the lysosomal dysfunction like bafilomycin A1, which inhibits vacuolar H^+-ATPase (V-ATPase)-dependent lysosomal acidification and blocks autophagosome-lysosome fusion. Thus, the PD-treated cells with LysoTracker Red, which is a marker for acidic compartment including lysosomes was stained to examine the colocalization of GFP-LC3B.

[3] = system: LDLR-silenced GBM cells; experiment: WST1 assay and immunoblot in LDLR-silenced (shLDLR) GBM cells
Source text: FIGS. 20A and 20B show the results that downregulation of LDLR restores inhibition of autophagy and cell viability. […] The expressions of LDLR, LC3B, SQSTM1, and pro/active CTSB were detected by immunoblot analysis. GAPDH was used as a loading control. […] Data shown represent the means of quintuplicate measurements which were repeated three times. The results are presented as a percentage of control (means±SD).
shRNA sequences against LDLR were cloned into a lentiviral vector. For the production of lentivirus, the vectors were co-transfected with psPAX2 and pMD2.G in 293T cells using Lipofectamine 3,000 (Invitrogen). Then, the cultured medium was harvested. The viral supernatant was applied to GBMs and cells were selected in puromycin for 3 additional days. The shRNA sequence was as follows. shLDLR sequence: 5′-CCACTTGTAGGAGATGCAT-3′ (SEQ ID NO: 7).
The present inventors hypothesized that the enhanced expression of LDLR and uptake of exogenous cholesterol by PD may promote accumulation of cholesterol in lysosomes and contribute to PD-mediated inhibition of autophagy and cell viability in GBM cells. To this end, the expression of LDLR gene was silenced in GBM cells using lentiviral shRNA transduction.

[4] = system: cathepsin B and D; experiment: Immunoblot of cathepsin B and D processing in GBM cells; conditions: PD 5 μM and 10 μM, 48 hours
Procedure: Immunoblot analyses for the processing of endogenous CTSB and CTSD are shown (upper, immature form/lower, mature form of CTSB and CTSD). GAPDH was used as a loading control.
Cells treated with the concentrations and materials described in FIGS. 1-3B, 7, 8, 10, 13, 16, 18, and 20 were lysed in buffer containing 20 mM Tris-HCl (pH 7.5), 150 mM NaCl, 1 mM EDTA, 1 mM Na2EDTA, 1 mM EGTA, 1% NP-40, 1% sodium deoxycholate, 1 mM Na3VO4, 1 mM MPI, 1 mM PMSF, and PI cocktails for 15 to 20 minutes on ice. Cell lysates were separated by SDS-PAGE and transferred to nitrocellulose membranes. Immunodetection was performed with the following primary antibodies: rabbit anti-LC3B, rabbit anti-cathepsin B, rabbit-anti GAPDH (Cell Signaling Technology, Danvers, Mass.), mouse anti-SQSTM1/p62, and goat anti-cathepsin D (Santa CruzKPL, Gaithersburg, Md., USA) were incubated at room temperature for 1 hour. The protein bands were detected with ECL western Blotting Substrate (Thermo Fisher Scientific, Waltham, Mass., USA).
To confirm whether PD functions as an autophagy inhibitor, the effects of PD on lysosomal proteases, cathepsin B and D, were examined Autophagy is a lysosome-mediated and self-degradative process that requires lysosomal cysteine proteases known as cathepsins. Since pro-cathepsins are cleaved into a mature form in lysosomes, the 33 kD active cleaved form of cathepsins has been commonly used as a marker for lysosomal activity. As can be confirmed in FIG. 13, while the mature forms of cathepsin B and D proteins were decreased, immature forms of those protein were increased after PD treatment in U87MG and U373MG cells, implying that PD suppresses a lysosomal function by downregulating the lysosomal proteolytic activity.

[5] = system: U87MG cells; experiment: GFP-LC3B puncta assay (confocal microscopy), U87MG cells; conditions: 10 μM PD, 24 hours
Procedure: The cells transiently expressing GFP-LC3 (green) were treated with DMSO or PD (10 μM) for 24 hours and analyzed by confocal microscopy. Nuclei were stained with DAPI (blue). Quantification shown on the right graph represents mean GFP-LC3B puncta per cells from three independent experiments±SD.
as §1
To confirm the western blot data, the LC3B accumulation in GBM cells was monitored using a confocal microscope. Both U87MG and U373MG cells transfected with a green fluorescent protein (GFP)-tagged LC3 expression plasmid were treated with 10 μM PD for 24 hours and examined under a confocal microscope.

Structure (SMILES): C[C@@H]1O[C@@H](O[C@H]2[C@H](OC(=O)[C@]34CCC(C)(C)C[C@H]3C3=CC[C@@H]5[C@@]6(C)C[C@H](O)[C@H](O[C@@H]7O[C@H](CO)[C@@H](O)[C@H](O)[C@H]7O)C(CO)(CO)[C@@H]6CC[C@@]5(C)[C@]3(C)C[C@H]4O)OC[C@H](O)[C@@H]2O)[C@H](O)[C@H](O)[C@H]1O[C@@H]1OC[C@@H](O)[C@H](O[C@@H]2OC[C@](O)(CO)[C@H]2O)[C@H]1O [PD, platycodin D]
- increase in LDL uptake [1]: ~6 fold
- lysosomal acidification (LysoTracker Red fluorescence) [2]: does not affect lysosomal acidification
- colocalization of GFP-LC3B and LysoTracker Red staining ([2]; BafA1 100 nM, Rapa 1 μM): significant separation
- reduction of cell viability ([3]; LDLR-silenced GBM cells, PD 10 μM or 20 μM, WST1): less effective
- LC3-II, p62 and cathepsin B response to PD ([3]; knockdown of LDLR, PD 5 μM or 10 μM, 24 hours, immunoblot): prevented the upregulation of LC3-II and p62 as well as the inactivation of cathpsin B
- immature forms of cathepsin B and D proteins [4]: increased
- mature forms of cathepsin B and D proteins [4]: decreased
- fold increase of GFP-LC3 puncta per cell vs DMSO [5]: 10.1 fold
- GFP-LC3 puncta per cell ([5]; mean±SD): 38.03±5.75
